According to ChEMBL document CHEMBL1144345, “Discovery of cell-permeable non-peptide inhibitors of beta-secretase by high-throughput docking and continuum electrostatics calculations” (J Med Chem, 2005):

Columns and labels:
[1] = Cytotoxic concentration against human and other tumor cell lines; assay type: functional
[2] = Effective concentration against Abeta(sw) peptide; assay type: functional
Beta-secretase (BACE) = Beta-secretase (BACE) (Homo sapiens, UniProt Q9Y5Z0+P56817); experiment: Beta-secretase inhibitory activity as inhibition of secreted alkaline phosphatase in HEK293 cells expressing SEAP-APP fusion protein; assay type: functional, cell-based

| SMILES | CC50 [1] | EC50 [2] | EC50 (Beta-secretase (BACE)) |
| --- | --- | --- | --- |
| CCSc1nsc(NC(=O)Nc2cccc(C(C)=O)c2)n1 | 23.3 µM | 2.6 µM | – |
| CCOCCCNC(=O)c1cc(NC(=O)Nc2cccc(Cl)c2)ccc1N(C)C | 11.1 µM | 2.6 µM | – |
| COCCCNC(=O)c1cc(NC(=O)Nc2cc(C(F)(F)F)cc(C(F)(F)F)c2)ccc1N(C)C | 24.6 µM | 3.2 µM | 27 µM |
| CN(C)c1ccc(NC(=O)Nc2cc(C(F)(F)F)cc(C(F)(F)F)c2)cc1C(=O)NCCCN1CCOCC1 | 12.5 µM | 3 µM | – |
